# Laboratory results taken from PubChem BioAssay (NCI).
#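 A five-concentration, 48-hour dose response in 96-well plates underlies each endpoint, interpolated linearly between surrounding concentrations. GI50 marks 50% less growth. TGI marks complete inhibition of growth.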
# Experiments:
# Test in all cases: NCI tumour cell line growth inhibition, 48 h
# [1] = test system: 786-0 renal
# [2] = test system: A498 renal
# [3] = test system: A549 NSCLC
# [4] = test system: ACHN renal
# [5] = test system: BT-549 breast
# [6] = test system: CAKI-1 renal
# [7] = test system: CCRF-CEM leukemia
# [8] = test system: COLO 205 colon
# [9] = test system: DU-145 prostate
# [10] = test system: EKVX NSCLC
# [11] = test system: HCC-2998 colon
# [12] = test system: HCT-116 colon
# [13] = test system: HCT-15 colon
# [14] = test system: HL-60(TB) leukemia
# [15] = test system: HOP-62 NSCLC
# [16] = test system: HOP-92 NSCLC
# [17] = test system: HS 578T breast
# [18] = test system: HT29 colon
# [19] = test system: IGROV1 ovarian
# [20] = test system: K-562 leukemia
# [21] = test system: KM12 colon
# [22] = test system: LOX IMVI melanoma
# [23] = test system: M14 melanoma
# [24] = test system: MALME-3M melanoma
# [25] = test system: MCF7 breast
# [26] = test system: MDA-MB-231 breast
# [27] = test system: MDA-MB-435
# [28] = test system: MOLT-4 leukemia
# [29] = test system: NCI-H226 lung
# [30] = test system: NCI-H23 lung
# [31] = test system: NCI-H460 lung
# [32] = test system: NCI-H522 lung
# [33] = test system: NCI/ADR-RES ovarian
# [34] = test system: OVCAR-4 ovarian
# [35] = test system: OVCAR-5 ovarian
# [36] = test system: OVCAR-8 ovarian
# [37] = test system: PC-3 prostate
# [38] = test system: RPMI-8226 leukemia
# [39] = test system: RXF 393 renal
# [40] = test system: SF-268 CNS
# [41] = test system: SF-295 CNS
# [42] = test system: SF-539 CNS
# [43] = test system: SK-MEL-2 melanoma
# [44] = test system: SK-MEL-28 melanoma
# [45] = test system: SK-MEL-5 melanoma
# [46] = test system: SK-OV-3 ovarian
# [47] = test system: SN12C renal
# [48] = test system: SNB-19 CNS
# [49] = test system: SNB-75 CNS
# [50] = test system: SR leukemia
# [51] = test system: SW-620 colon
# [52] = test system: T-47D breast
# [53] = test system: TK-10 renal
# [54] = test system: U251 CNS
# [55] = test system: UACC-257 melanoma
# [56] = test system: UACC-62 melanoma
# [57] = test system: UO-31 renal
# [58] = test system: OVCAR-3 ovarian
compound,measurement,setting,value
CCC(CC)N1C(=O)/C(=c2\sc3n(c2=O)C2C(NN=3)N(CC)C(=O)N2CC)c2ccccc21 (stereo not given),GI50,[1],665 nM
same,TGI,[1],14800 nM
same,GI50,[2],287 nM
same,TGI,[2],925 nM
same,GI50,[3],503 nM
same,TGI,[3],21700 nM
same,GI50,[4],690 nM
same,TGI,[4],16600 nM
same,GI50,[5],465 nM
same,TGI,[5],3290 nM
same,GI50,[6],577 nM
same,TGI,[6],14900 nM
same,GI50,[7],365 nM
same,TGI,[7],> 94000 nM
same,GI50,[8],317 nM
same,TGI,[8],1120 nM
same,GI50,[9],453 nM
same,TGI,[9],17200 nM
same,GI50,[10],734 nM
same,TGI,[10],> 87800 nM
same,GI50,[11],370 nM
same,TGI,[11],12600 nM
same,GI50,[12],345 nM
same,TGI,[12],5180 nM
same,GI50,[13],353 nM
same,TGI,[13],13100 nM
same,GI50,[14],288 nM
same,TGI,[14],888 nM
same,GI50,[15],554 nM
same,TGI,[15],22500 nM
same,GI50,[16],2410 nM
same,TGI,[16],45400 nM
same,GI50,[17],381 nM
same,TGI,[17],22500 nM
same,GI50,[18],326 nM
same,TGI,[18],3040 nM
same,GI50,[19],554 nM
same,TGI,[19],19200 nM
same,GI50,[20],351 nM
same,TGI,[20],> 100000 nM
same,GI50,[21],431 nM
same,TGI,[21],25100 nM
same,GI50,[22],345 nM
same,TGI,[22],11100 nM
same,GI50,[23],337 nM
same,TGI,[23],11500 nM
same,GI50,[24],3460 nM
same,TGI,[24],35100 nM
same,GI50,[25],364 nM
same,TGI,[25],14000 nM
same,GI50,[26],591 nM
same,TGI,[26],12000 nM
same,GI50,[27],240 nM
same,TGI,[27],602 nM
same,GI50,[28],434 nM
same,TGI,[28],> 41100 nM
same,GI50,[29],923 nM
same,TGI,[29],37100 nM
same,GI50,[30],535 nM
same,TGI,[30],17800 nM
same,GI50,[31],364 nM
same,TGI,[31],29000 nM
same,GI50,[32],312 nM
same,TGI,[32],3360 nM
same,GI50,[33],385 nM
same,TGI,[33],15600 nM
same,GI50,[34],10400 nM
same,TGI,[34],> 100000 nM
same,GI50,[35],538 nM
same,TGI,[35],35300 nM
same,GI50,[36],397 nM
same,TGI,[36],26700 nM
same,GI50,[37],473 nM
same,TGI,[37],> 100000 nM
same,GI50,[38],442 nM
same,TGI,[38],8450 nM
same,GI50,[39],326 nM
same,TGI,[39],16700 nM
same,GI50,[40],1070 nM
same,TGI,[40],29300 nM
same,GI50,[41],324 nM
same,TGI,[41],12300 nM
same,GI50,[42],307 nM
same,TGI,[42],3430 nM
same,GI50,[43],1920 nM
same,TGI,[43],5880 nM
same,GI50,[44],5820 nM
same,TGI,[44],60200 nM
same,GI50,[45],590 nM
same,TGI,[45],4100 nM
same,GI50,[46],629 nM
same,TGI,[46],51800 nM
same,GI50,[47],1200 nM
same,TGI,[47],17800 nM
same,GI50,[48],465 nM
same,TGI,[48],24600 nM
same,GI50,[49],198 nM
same,TGI,[49],714 nM
same,GI50,[50],361 nM
same,TGI,[50],> 35100 nM
same,GI50,[51],458 nM
same,TGI,[51],> 100000 nM
same,GI50,[52],2800 nM
same,TGI,[52],> 65600 nM
same,GI50,[53],9040 nM
same,TGI,[53],29100 nM
same,GI50,[54],405 nM
same,TGI,[54],15500 nM
same,GI50,[55],7210 nM
same,TGI,[55],> 78000 nM
same,GI50,[56],538 nM
same,TGI,[56],21600 nM
same,GI50,[57],688 nM
same,TGI,[57],33800 nM
Cc1cc(F)cc(NS(=O)(=O)c2ccc(-c3cnc(C4CC4)o3)cc2)c1,GI50,[1],752 nM
same,TGI,[1],16400 nM
same,GI50,[2],76.2 nM
same,TGI,[2],1010 nM
same,GI50,[3],662 nM
same,TGI,[3],14300 nM
same,GI50,[4],648 nM
same,TGI,[4],12800 nM
same,GI50,[5],1010 nM
same,TGI,[5],9820 nM
same,GI50,[6],86.9 nM
same,TGI,[6],13100 nM
same,GI50,[7],199 nM
same,TGI,[7],13500 nM
same,GI50,[8],246 nM
same,TGI,[8],1760 nM
same,GI50,[9],421 nM
same,TGI,[9],13800 nM
same,GI50,[10],591 nM
same,TGI,[10],13900 nM
same,GI50,[11],739 nM
same,TGI,[11],10700 nM
same,GI50,[12],225 nM
same,TGI,[12],10900 nM
same,GI50,[13],83.6 nM
same,TGI,[13],11400 nM
same,GI50,[14],99.3 nM
same,TGI,[14],769 nM
same,GI50,[15],362 nM
same,TGI,[15],14600 nM
same,GI50,[16],422 nM
same,TGI,[16],5040 nM
same,GI50,[17],303 nM
same,TGI,[17],7850 nM
same,GI50,[18],105 nM
same,TGI,[18],12200 nM
same,GI50,[19],252 nM
same,TGI,[19],13600 nM
same,GI50,[20],49.4 nM
same,TGI,[20],12300 nM
same,GI50,[21],183 nM
same,TGI,[21],11600 nM
same,GI50,[22],301 nM
same,TGI,[22],12700 nM
same,GI50,[23],285 nM
same,TGI,[23],13000 nM
same,GI50,[24],837 nM
same,TGI,[24],20900 nM
same,GI50,[25],80.6 nM
same,TGI,[25],12100 nM
same,GI50,[26],827 nM
same,TGI,[26],13600 nM
same,GI50,[27],31.4 nM
same,TGI,[27],145 nM
same,GI50,[28],366 nM
same,TGI,[28],15400 nM
same,GI50,[29],489 nM
same,TGI,[29],7820 nM
same,GI50,[30],585 nM
same,TGI,[30],12600 nM
same,GI50,[31],142 nM
same,TGI,[31],2030 nM
same,GI50,[32],372 nM
same,TGI,[32],10800 nM
same,GI50,[33],120 nM
same,TGI,[33],5290 nM
same,GI50,[58],52.3 nM
same,TGI,[58],11000 nM
same,GI50,[34],967 nM
same,TGI,[34],15200 nM
same,GI50,[35],926 nM
same,TGI,[35],15500 nM
same,GI50,[36],735 nM
same,TGI,[36],14700 nM
same,GI50,[37],342 nM
same,TGI,[37],12300 nM
same,GI50,[38],179 nM
same,TGI,[38],1870 nM
same,GI50,[39],161 nM
same,TGI,[39],603 nM
same,GI50,[40],1500 nM
same,TGI,[40],13200 nM
same,GI50,[41],127 nM
same,TGI,[41],3490 nM
same,GI50,[42],271 nM
same,TGI,[42],2990 nM
same,GI50,[43],1030 nM
same,TGI,[43],15500 nM
same,GI50,[44],1890 nM
same,TGI,[44],16600 nM
same,GI50,[45],266 nM
same,TGI,[45],1890 nM
same,GI50,[46],748 nM
same,TGI,[46],15400 nM
same,GI50,[47],773 nM
same,TGI,[47],11600 nM
same,GI50,[48],441 nM
same,TGI,[48],15000 nM
same,GI50,[49],159 nM
same,TGI,[49],1570 nM
same,GI50,[50],46.4 nM
same,TGI,[50],5910 nM
same,GI50,[51],98.8 nM
same,TGI,[51],14400 nM
same,GI50,[52],268 nM
same,TGI,[52],21800 nM
same,GI50,[53],3170 nM
same,TGI,[53],16700 nM
same,GI50,[54],451 nM
same,TGI,[54],14500 nM
same,GI50,[55],1770 nM
same,TGI,[55],12100 nM
same,GI50,[56],122 nM
same,TGI,[56],8860 nM
same,GI50,[57],848 nM
same,TGI,[57],12600 nM
